Reference: PubChem BioAssay (NCI)
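Five compound concentrations were applied to cells in 96-well plates for 48 hours; endpoints were derived by simple linear interpolation of the resulting dose-response curve. GI50 = concentration required for 50% inhibition of growth. Definition used: TGI = concentration required for complete inhibition of growth.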

Legend:
Assay in all cases: growth of human tumour cells (NCI), 48 h
786-0 renal = system: 786-0 renal
A498 renal = system: A498 renal
A549 NSCLC = system: A549 NSCLC
ACHN renal = system: ACHN renal
CAKI-1 renal = system: CAKI-1 renal
CCRF-CEM leukemia = system: CCRF-CEM leukemia
COLO 205 colon = system: COLO 205 colon
DLD-1 colon = system: DLD-1 colon
DMS 114 small cell lung = system: DMS 114 small cell lung
DMS 273 small cell lung = system: DMS 273 small cell lung
EKVX NSCLC = system: EKVX NSCLC
HCC-2998 colon = system: HCC-2998 colon
HCT-116 colon = system: HCT-116 colon
HCT-15 colon = system: HCT-15 colon
HL-60(TB) leukemia = system: HL-60(TB) leukemia
HOP-18 NSCLC = system: HOP-18 NSCLC
HOP-62 NSCLC = system: HOP-62 NSCLC
HOP-92 NSCLC = system: HOP-92 NSCLC
HT29 colon = system: HT29 colon
IGROV1 ovarian = system: IGROV1 ovarian
K-562 leukemia = system: K-562 leukemia
KM12 colon = system: KM12 colon
KM20L2 colon = system: KM20L2 colon
LOX IMVI melanoma = system: LOX IMVI melanoma
LXFL 529 NSCLC = system: LXFL 529 NSCLC
M14 melanoma = system: M14 melanoma
M19-MEL melanoma = system: M19-MEL melanoma
MALME-3M melanoma = system: MALME-3M melanoma
MOLT-4 leukemia = system: MOLT-4 leukemia
NCI-H226 lung = system: NCI-H226 lung
NCI-H23 lung = system: NCI-H23 lung
NCI-H460 lung = system: NCI-H460 lung
NCI-H522 lung = system: NCI-H522 lung
OVCAR-3 ovarian = system: OVCAR-3 ovarian
OVCAR-4 ovarian = system: OVCAR-4 ovarian
OVCAR-5 ovarian = system: OVCAR-5 ovarian
OVCAR-8 ovarian = system: OVCAR-8 ovarian
RPMI-8226 leukemia = system: RPMI-8226 leukemia
RXF 393 renal = system: RXF 393 renal
RXF-631 renal = system: RXF-631 renal
SF-268 CNS = system: SF-268 CNS
SF-295 CNS = system: SF-295 CNS
SF-539 CNS = system: SF-539 CNS
SK-MEL-2 melanoma = system: SK-MEL-2 melanoma
SK-MEL-28 melanoma = system: SK-MEL-28 melanoma
SK-MEL-5 melanoma = system: SK-MEL-5 melanoma
SK-OV-3 ovarian = system: SK-OV-3 ovarian
SN12C renal = system: SN12C renal
SNB-19 CNS = system: SNB-19 CNS
SNB-75 CNS = system: SNB-75 CNS
SNB-78 CNS = system: SNB-78 CNS
SR leukemia = system: SR leukemia
SW-620 colon = system: SW-620 colon
TK-10 renal = system: TK-10 renal
U251 CNS = system: U251 CNS
UACC-257 melanoma = system: UACC-257 melanoma
UACC-62 melanoma = system: UACC-62 melanoma
UO-31 renal = system: UO-31 renal
XF 498 CNS = system: XF 498 CNS

`COc1ccc2nc3cc(Cl)ccc3c(Sc3ccc([N+](=O)[O-])cc3)c2c1` was tested, and the GI50 (786-0 renal) was over 100 µM, the TGI (786-0 renal) was over 100 µM and the GI50 (A498 renal) was over 100 µM. It also gave a TGI (A498 renal) of over 100 µM, a GI50 (A549 NSCLC) of over 100 µM and a TGI (A549 NSCLC) of over 100 µM. It also gave a TGI (ACHN renal) of over 10 µM, a GI50 (CAKI-1 renal) of over 100 µM and a TGI (CAKI-1 renal) of over 100 µM. The GI50 (CCRF-CEM leukemia) was over 100 µM, the TGI (CCRF-CEM leukemia) was over 100 µM and the GI50 (COLO 205 colon) was over 100 µM. For the same compound, the TGI (COLO 205 colon) was over 100 µM, the GI50 (DLD-1 colon) was over 100 µM and the TGI (DLD-1 colon) was over 100 µM. It also gave a GI50 (DMS 114 small cell lung) of over 100 µM, a TGI (DMS 114 small cell lung) of over 100 µM and a GI50 (DMS 273 small cell lung) of over 100 µM. The TGI (DMS 273 small cell lung) was over 100 µM, the GI50 (EKVX NSCLC) was over 100 µM and the TGI (EKVX NSCLC) was over 100 µM. It also gave a TGI (HCC-2998 colon) of over 10 µM, a GI50 (HCT-116 colon) of over 100 µM and a TGI (HCT-116 colon) of over 100 µM. The GI50 (HCT-15 colon) was over 100 µM, the TGI (HCT-15 colon) was over 100 µM and the TGI (HL-60(TB) leukemia) was over 100 µM. It also gave a GI50 (HOP-18 NSCLC) of over 100 µM, a TGI (HOP-18 NSCLC) of over 100 µM and a GI50 (HOP-62 NSCLC) of over 100 µM. The TGI (HOP-62 NSCLC) was over 100 µM, the GI50 (HOP-92 NSCLC) was over 100 µM and the TGI (HOP-92 NSCLC) was over 100 µM. It also gave a TGI (HT29 colon) of over 100 µM, a GI50 (IGROV1 ovarian) of over 100 µM and a TGI (IGROV1 ovarian) of over 100 µM. The GI50 (K-562 leukemia) was over 100 µM, the TGI (K-562 leukemia) was over 100 µM and the GI50 (KM12 colon) was over 100 µM. It also gave a TGI (KM12 colon) of over 100 µM, a GI50 (KM20L2 colon) of over 100 µM and a TGI (KM20L2 colon) of over 100 µM. The GI50 (LOX IMVI melanoma) was over 100 µM, the TGI (LOX IMVI melanoma) was over 100 µM and the GI50 (LXFL 529 NSCLC) was over 100 µM. For the same compound, the TGI (LXFL 529 NSCLC) was over 100 µM, the GI50 (M14 melanoma) was over 100 µM and the TGI (M14 melanoma) was over 100 µM. For the same compound, the GI50 (M19-MEL melanoma) was over 100 µM, the TGI (M19-MEL melanoma) was over 100 µM and the GI50 (MALME-3M melanoma) was over 100 µM. For the same compound, the TGI (MALME-3M melanoma) was over 100 µM, the GI50 (MOLT-4 leukemia) was over 100 µM and the TGI (MOLT-4 leukemia) was over 100 µM. For the same compound, the GI50 (NCI-H226 lung) was over 100 µM, the TGI (NCI-H226 lung) was over 100 µM and the GI50 (NCI-H23 lung) was over 100 µM. The TGI (NCI-H23 lung) was over 100 µM, the GI50 (NCI-H460 lung) was over 100 µM and the TGI (NCI-H460 lung) was over 100 µM. For the same compound, the GI50 (NCI-H522 lung) was over 100 µM, the TGI (NCI-H522 lung) was over 100 µM and the GI50 (OVCAR-3 ovarian) was over 100 µM. For the same compound, the TGI (OVCAR-3 ovarian) was over 100 µM, the GI50 (OVCAR-4 ovarian) was over 100 µM and the TGI (OVCAR-4 ovarian) was over 100 µM. The GI50 (OVCAR-5 ovarian) was over 100 µM, the TGI (OVCAR-5 ovarian) was over 100 µM and the GI50 (OVCAR-8 ovarian) was over 100 µM. The TGI (OVCAR-8 ovarian) was over 100 µM, the TGI (RPMI-8226 leukemia) was over 100 µM and the GI50 (RXF 393 renal) was over 100 µM. The TGI (RXF 393 renal) was over 100 µM, the GI50 (RXF-631 renal) was over 100 µM and the TGI (RXF-631 renal) was over 100 µM. It also gave a GI50 (SF-268 CNS) of over 100 µM, a TGI (SF-268 CNS) of over 100 µM and a GI50 (SF-295 CNS) of over 100 µM. The TGI (SF-295 CNS) was over 100 µM, the TGI (SF-539 CNS) was over 10 µM and the GI50 (SK-MEL-2 melanoma) was over 100 µM. It also gave a TGI (SK-MEL-2 melanoma) of over 100 µM, a GI50 (SK-MEL-28 melanoma) of over 100 µM and a TGI (SK-MEL-28 melanoma) of over 100 µM. The GI50 (SK-MEL-5 melanoma) was over 100 µM, the TGI (SK-MEL-5 melanoma) was over 100 µM and the GI50 (SK-OV-3 ovarian) was over 100 µM. The TGI (SK-OV-3 ovarian) was over 100 µM, the GI50 (SN12C renal) was over 100 µM and the TGI (SN12C renal) was over 100 µM. It also gave a GI50 (SNB-19 CNS) of over 100 µM, a TGI (SNB-19 CNS) of over 100 µM and a GI50 (SNB-75 CNS) of over 10 µM. The TGI (SNB-75 CNS) was over 100 µM, the TGI (SNB-78 CNS) was over 10 µM and the TGI (SR leukemia) was over 10 µM. For the same compound, the GI50 (SW-620 colon) was over 100 µM, the TGI (SW-620 colon) was over 100 µM and the GI50 (TK-10 renal) was over 100 µM. For the same compound, the TGI (TK-10 renal) was over 100 µM, the GI50 (U251 CNS) was over 100 µM and the TGI (U251 CNS) was over 100 µM. The GI50 (UACC-257 melanoma) was over 100 µM, the TGI (UACC-257 melanoma) was over 100 µM and the GI50 (UACC-62 melanoma) was over 100 µM. The TGI (UACC-62 melanoma) was over 100 µM, the GI50 (UO-31 renal) was over 100 µM and the TGI (UO-31 renal) was over 100 µM. It also gave a GI50 (XF 498 CNS) of over 100 µM and a TGI (XF 498 CNS) of over 100 µM.
